Measured values as given in patent US20240067651A1 (Biohaven Therapeutics Ltd., priority 2019, published 2024).
Read-outs that look alike come from different tables or passages of the source.

Tests used:
Caco-2 monolayer = assay: Caco-2 Permeability Assay; type: in vitro ADME, human
Method in brief: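 Caco-2 monolayers cultured 21 days (TEER >600 […]); test article at 10 μM in HBSS/HEPES pH 7.4 transport medium, dosed apical or basolateral, ±Pgp inhibitor. Incubated 90 min at 37 °C; both compartments quantified by LC-MS/MS. Papp (A→B, B→A), efflux ratio and % recovery calculated.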

[1] = Stability in Simulated Gastric Fluid (SGF); type: in vitro ADME; design: key: % parent compound remaining relative to 0-minute sample
Method in brief: (§1)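 Percent parent compound remaining, by LC-MS/MS against the 0-minute sample, is reported after incubation at 2 μg/mL (final) in pepsin-containing SGF at pH 1.2 or pancreatin-containing SIF at pH 6.8. Incubations run at 37° C for up to 60 minutes.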

[2] = Stability in Simulated Intestinal Fluid (SIF); type: in vitro ADME; design: key: % parent compound remaining relative to 0-minute sample
Method in brief: as §1

Plasma Stability = type: in vitro ADME, human
Method in brief: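 Compounds incubated at 1 μM in fresh human plasma for 1 hour at 37° C, then protein-precipitated with acetonitrile/formic acid containing internal standard. Remaining parent measured by LC-MS/MS in triplicate, expressed as percent of control remaining.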

[3] = % remaining after 1 h in simulated gastric fluid
[4] = % remaining after 1 h in simulated intestinal fluid
[5] = % remaining after 1 h in human plasma
[6] = simulated gastric fluid, remaining at 1 h
[7] = simulated intestinal fluid, remaining at 1 h

CC(C)OCCn1c(SCOC(=O)CCCCOC(=O)CNC(=O)OC(C)(C)C)nc(=O)c2c1ccn2COC(=O)CCCCOC(=O)CNC(=O)OC(C)(C)C [Example 329, ({5-[{{5-[(2-{[(tert-butoxy)carbonyl]amino}acetyl)oxy]pentanoyl}oxy)methyl]-4-oxo-1-[2-(propan-2-yloxy)ethyl]-1H,4H,5H-pyrrolo[3,2-d]pyrimidin-2-yl}sulfanyl)methyl 5-[(2-{[(tert-butoxy)carbonyl]amino}acetyl)oxy] pentanoate]
Caco-2 Papp (Caco-2 monolayer): 5.96 ×10⁻⁶ cm/s | SGF ([1]; % remaining @ 1 h): 95% @ 1 h | SIF ([2]; % remaining @ 1 h): 35% @ 1 h | human Plasma stability (Plasma Stability; % remaining @ 1 h): 1% @ 1 h

COc1ccc(N(C)C(=O)OCSc2nc(=O)c3[nH]ccc3n2CCOC(C)C)cc1 [Example 254]
Caco-2 Papp (Caco-2 monolayer; Caco-2 monolayer): 8.53 ×10⁻⁶ cm/s | SGF ([1]; simulated gastric fluid, at 1 h): 95% remaining | SIF ([2]; simulated intestinal fluid, at 1 h): 94% remaining | human Plasma stability (Plasma Stability; human plasma, at 1 h): 88% remaining

bis (trifluoroacetic acid) 5-{[2-({[(5-{[(2S)-2-amino-4-methylpentanoyl]oxy}penta-noyl)oxy]methyl}sulfanyl)-4-oxo-1-[2-(propan-2-yloxy)ethyl]-1H,4H,5H-pyrrolo[3,2-d]pyrimidin-5-yl]methoxy}-5-oxopentyl (2S)-2-amino-4-methylpentanoate [Example 346]
Caco-2 Papp (Caco-2 monolayer; Caco-2): <0.0623 ×10⁻⁶ cm/s | SGF ([1]; % remaining @ 1 h): 97% remaining | SIF ([2]; % remaining @ 1 h): 7% remaining | human Plasma stability (Plasma Stability; % remaining @ 1 h): 98% remaining

5-{({2-[2-(carbamoyloxy)ethoxy]ethoxy}car-bonyl)oxy]methyl}-1-[2-(propan-2-yloxy)ethyl]-2-sulfanylidene-1H,2H,3H,4H,5H-pyrrolo[3,2-d]pyrimidin-4-one [Example 402]
Caco-2 Papp (Caco-2 monolayer; Caco-2 monolayer): 24.6 ×10⁻⁶ cm/s | SGF [1, 3]: 99% remaining | SIF [2, 4]: 89% remaining | human Plasma stability (Plasma Stability; [5]): 99% remaining

{4-oxo-1-[2-(propan-2-yloxy)ethyl]-2-sulfanylidene-1H,2H,3H,4H,5H-pyrrolo[3,2-d]pyrimidin-5-yl}methyl 2-[2-(acetyloxy)-N-methylacetamido]acetate [Example 400]
Caco-2 Papp (Caco-2 monolayer; Caco-2 monolayer): 0.242 ×10⁻⁶ cm/s | SGF [1, 3]: 99% remaining | SIF [2, 4]: 26% remaining | human Plasma stability (Plasma Stability; [5]): 89% remaining

(2R)-2-amino-4-methyl-N-[2-(2-{[{{4-oxo-1-[2-(propan-2-yloxy)ethyl]-2-sulfanylidene-1H,2H,3H,4H,5H-pyrrolo[3,2-d]pyrimidin-5-yl}methoxy)carbonyl]oxy}ethoxy)eth-yl]pentanamide; trifluoroacetic acid [Example 386]
Caco-2 Papp (Caco-2 monolayer; Caco-2 monolayer): 0.077 ×10⁻⁶ cm/s | SGF [1, 6]: 93% remaining | SIF [2, 7]: 86% remaining | human Plasma stability (Plasma Stability; human plasma, remaining at 1 h): 23% remaining

(2R)-2-{[(tert-butoxy)carbonyl]amino}-4-methyl-N-[2-(2-{[{{4-oxo-1-[2-(propan-2-yloxy)ethyl]-2-sulfanylidene-1H,2H,3H,4H,5H-pyrrolo[3,2-d]pyrimidin-5-yl}methoxy)carbonyl]oxy}ethoxy)eth-yl]pentanamide [Example 385]
Caco-2 Papp (Caco-2 monolayer; Caco-2 monolayer): 3.87 ×10⁻⁶ cm/s | SGF [1, 6]: 94% remaining | SIF [2, 7]: 84% remaining | human Plasma stability (Plasma Stability; human plasma, remaining at 1 h): 1% remaining

CC(C)OCCn1c(=S)[nH]c(=O)c2c1ccn2COC(=O)[C@@H]1CCN(C(=O)OC(C)(C)C)C1 [Example 129, 1-tert-butyl 3-{4-oxo-1-[2-(propan-2-yloxy)ethyl]-2-sulfanylidene-1H,2H,3H,4H,5H-pyrrolo[3,2-d]pyrimidin-5-yl} methyl (3R)-pyrrolidine-1,3-dicarboxylate]
Caco-2 Papp (Caco-2 monolayer; Caco-2 monolayer): 12.1 ×10⁻⁶ cm/s | SGF ([1]; % remaining at 1 h in simulated gastric fluid): 84% remaining | SIF ([2]; % remaining at 1 h in simulated intestinal fluid): 21% remaining | human Plasma stability (Plasma Stability; % remaining at 1 h in human plasma): 1% remaining

15-[2-(propan-2-yloxy)ethyl]-14-sulfanylidene-3,5,9,11-tetraoxa-1,13,15-triazatricyclo[11.5.2.0^{16,19}]icosa 16(19),17-diene-4,10,20-trione [Example 409]
Caco-2 Papp (Caco-2 monolayer; Caco-2 monolayer): <0.107 ×10⁻⁶ cm/s | SGF [1, 3]: 94% remaining | SIF [2, 4]: 28% remaining | human Plasma stability (Plasma Stability; [5]): 4% remaining

CC(C)OCCn1c(SCOC(=O)CCCOC(=O)[C@H](NC(=O)OC(C)(C)C)C(C)C)nc(=O)c2c1ccn2COC(=O)CCCOC(=O)[C@H](NC(=O)OC(C)(C)C)C(C)C [Example 357, 4-{[2-({[(4-{[(2R)-2-{[(tert-butoxy)carbonyl]amino}-3-methylbutanoyl]oxy}buta-noyl)oxy]methyl}sulfanyl)-4-oxo-1-[2-(propan-2-yloxy)ethyl]-1H,4H,5H-pyrrolo[3,2-d]pyrimidin-5-yl]methoxy}-4-oxobutyl (2R)-2-{[(tert-butoxy)carbonyl]amino}-3-methylbutanoate]
Caco-2 Papp (Caco-2 monolayer; Caco-2 monolayer): 1.5 ×10⁻⁶ cm/s | SGF [1, 6]: 98% remaining | SIF [2, 7]: 14% remaining | human Plasma stability (Plasma Stability; human plasma, remaining at 1 h): 5% remaining

CC(C)OCCn1c(=S)n(COC(=O)CCCOC(=O)[C@H](N)C(C)C)c(=O)c2c1ccn2COC(=O)CCCOC(=O)[C@H](N)C(C)C.O=C(O)C(F)(F)F.O=C(O)C(F)(F)F [Example 360, bis(trifluoroacetic acid) 4-[(3-{[(4-{[(2R)-2-amino-3-methylbutanoyl]oxy}buta-noyl)oxy]methyl}-4-oxo-1-[2-(propan-2-yloxy)ethyl]-2-sulfanylidene-1H,2H,3H,4H,5H-pyrrolo[3,2-d]pyrimidin-5-yl)methoxy]-4-oxobutyl (2R)-2-amino-3-methylbutanoate]
Caco-2 Papp (Caco-2 monolayer; Caco-2 monolayer): <0.628 ×10⁻⁶ cm/s | SGF [1, 6]: 46% remaining | SIF [2, 7]: 56% remaining | human Plasma stability (Plasma Stability; human plasma, remaining at 1 h): 3% remaining
